What was measured:
Assay type in all cases: in vivo
[1] = tested on: Diabrotica balteata; assay: Example B4: Diabrotica balteata, sprayed maize sprouts; conditions: 96 h, application rate 200 ppm, L2 larvae, 4 days after infestation, read-out: effect in at least one of the two categories (mortality or growth inhibition)
Procedure: Maize sprouts placed onto an agar layer in 24-well microtiter plates were treated with aqueous test solutions prepared from 10,000 ppm DMSO stock solutions by spraying. After drying, the plates were infested with L2 larvae (6 to 10 per well). The samples were assessed for mortality and growth inhibition in comparison to untreated samples 4 days after infestation.

[2] = tested on: Bemisia tabaci; assay: Example B7: Bemisia tabaci, sprayed cotton leaf discs; conditions: foliar, 144 h, application rate 200 ppm, adult white flies, 6 days after incubation
Procedure: Cotton leaf discs were placed on agar in 24-well microtiter plates and sprayed with aqueous test solutions prepared from 10,000 ppm DMSO stock solutions. After drying the leaf discs were infested with adult white flies. The samples were checked for mortality 6 days after incubation.

[3] = tested on: Myzus persicae; assay: Example B5: Myzus persicae feeding/contact, sprayed sunflower leaf discs; conditions: foliar; for mortality at 200 ppm: Myzus persicae, 144 h, application rate 200 ppm, mixed ages, 6 days after infestation; for mortality at 12.5 ppm: Myzus persicae (B5), concentration 12.5 ppm
Procedure: Sunflower leaf discs were placed onto agar in a 24-well microtiter plate and sprayed with aqueous test solutions prepared from 10,000 ppm DMSO stock solutions. After drying, the leaf discs were infested with an aphid population of mixed ages. The samples were assessed for mortality 6 days after infestation.

[4] = tested on: Plutella xylostella; assay: Example B3: Plutella xylostella, artificial diet; conditions: 120 h, application rate 200 ppm, L2 larvae, 5 days after infestation, read-out: effect in at least one of the two categories (mortality or growth inhibition)
Procedure: 24-well microtiter plates with artificial diet were treated with aqueous test solutions prepared from 10,000 ppm DMSO stock solutions by pipetting. After drying, the plates were infested with L2 larvae (10 to 15 per well). The samples were assessed for mortality and growth inhibition in comparison to untreated samples 5 days after infestation.

[5] = tested on: Tetranychus urticae; assay: Example B10: Tetranychus urticae, sprayed bean leaf discs; conditions: foliar, 192 h, application rate 200 ppm, mixed population (mobile stages), 8 days after infestation
Procedure: Bean leaf discs on agar in 24-well microtiter plates were sprayed with aqueous test solutions prepared from 10,000 ppm DMSO stock solutions. After drying the leaf discs were infested with a mite population of mixed ages. The samples were assessed for mortality on mixed population (mobile stages) 8 days after infestation.

[6] = tested on: Spodoptera littoralis; assay: Example B1: Spodoptera littoralis, sprayed cotton leaf discs; conditions: foliar, 72 h, application rate 200 ppm, L1 larvae, 3 days after infestation
Procedure: Cotton leaf discs were placed onto agar in 24-well microtiter plates and sprayed with aqueous test solutions prepared from 10′000 ppm DMSO stock solutions. After drying the leaf discs were infested with five L1 larvae. The samples were assessed for mortality, anti-feeding effect, and growth inhibition in comparison to untreated samples 3 days after infestation. Control of Spodoptera littoralis by a test sample is given when at least one of the categories mortality, anti-feedant effect, and growth inhibition is higher than the untreated sample.

[7] = tested on: Euschistus heros; assay: Example B8: Euschistus heros, sprayed soybean leaves; conditions: for mortality at 0.8 ppm: Euschistus heros (B8), concentration 0.8 ppm; for percent effect (mortality or growth inhibition) at 200 ppm: Euschistus heros, 120 h, application rate 200 ppm, N2 nymphs, 5 days after infestation, read-out: effect in at least one of the two categories (mortality or growth inhibition)
Procedure: Soybean leaves on agar in 24-well microtiter plates were sprayed with aqueous test solutions prepared from 10,000 ppm DMSO stock solutions. After drying the leaves were infested with N2 nymphs. The samples were assessed for mortality and growth inhibition in comparison to untreated samples 5 days after infestation.

[8] = tested on: Myzus persicae; assay: Example B6: Myzus persicae systemic, pea seedling roots in test solution; conditions: for mortality at 6 ppm: Myzus persicae (B6), concentration 6 ppm; for mortality at 24 ppm: Myzus persicae, 144 h, test rate 24 ppm, mixed ages, 6 days
Procedure: Roots of pea seedlings infested with an aphid population of mixed ages were placed directly into aqueous test solutions prepared from 10,000 DMSO stock solutions. The samples were assessed for mortality 6 days after placing seedlings into test solutions.

[9] = tested on: Frankliniella occidentalis; assay: Example B11: Frankliniella occidentalis, sprayed sunflower leaf discs; conditions: foliar, 168 h, application rate 200 ppm, mixed ages, 7 days after infestation
Procedure: Sunflower leaf discs were placed on agar in 24-well microtiter plates and sprayed with aqueous test solutions prepared from 10,000 DMSO stock solutions. After drying the leaf discs were infested with a Frankliniella population of mixed ages. The samples were assessed for mortality 7 days after infestation.

SMILES | percent effect (mortality or growth inhibition) at 200 ppm [1] [%] | mortality at 200 ppm [2] [%] | mortality at 200 ppm [3] [%] | percent effect (mortality or growth inhibition) at 200 ppm [4] [%] | mortality at 200 ppm [5] [%] | percent control (mortality, anti-feedant effect or growth inhibition) at 200 ppm [6] [%] | mortality at 12.5 ppm [3] [%] | mortality at 0.8 ppm [7] [%] | percent effect (mortality or growth inhibition) at 200 ppm [7] [%] | mortality at 6 ppm [8] [%] | mortality at 24 ppm [8] [%] | mortality at 200 ppm [9] [%]
CCS(=O)(=O)c1cc(C(C)(C)C#N)ccc1-c1cn2cnc(C(F)(F)F)cc2n1 [Compound P20, 2-[3-ethylsulfonyl-4-[7-(trifluoromethyl)imidazo[1,2-c]pyrimidin-2-yl]phenyl]-2-methyl-propanenitrile] | ≥ 80 | ≥ 80 | ≥ 80 | ≥ 80 |  |  |  |  |  |  |  | 
CCS(=O)(=O)c1cc(C(C)(C)C#N)cnc1-c1cn2cnc(C(F)(F)F)cc2n1 [Compound P1, 2-[5-ethylsulfonyl-6-[7-(trifluoromethyl)imidazo[1,2-c]pyrimidin-2-yl]-3-pyridyl]-2-methyl-propanenitrile] | ≥ 80 | ≥ 80 | ≥ 80 | ≥ 80 | ≥ 80 | ≥ 80 | 100 | 100 | ≥ 80 | 100 | ≥ 80 | 
CCS(=O)(=O)c1cc(C(C)(C)C#N)cnc1-n1cc2cnc(C(F)(F)F)cc2n1 [Compound P2, 2-[5-ethylsulfonyl-6-[6-(trifluoromethyl)pyrazolo[4,3-c]pyridin-2-yl]-3-pyridyl]-2-methyl-propanenitrile] | ≥ 80 | ≥ 80 | ≥ 80 | ≥ 80 |  | ≥ 80 |  |  | ≥ 80 |  |  | 
CCS(=O)(=O)c1cc(C(C)(C)C#N)cnc1-c1cn2cnc(SC(F)F)cc2n1 [Compound P14, 2-[6-[7-(difluoromethylsulfanyl)imidazo[1,2-c]pyrimidin-2-yl]-5-ethylsulfonyl-3-pyridyl]-2-methyl-propanenitrile] | ≥ 80 | ≥ 80 | ≥ 80 | ≥ 80 |  | ≥ 80 |  |  | ≥ 80 |  |  | 
CCSc1cc(C(C)(C)C#N)cnc1-c1nc2cc(C(F)(F)F)n(CC(F)(F)F)c(=O)c2n1C [Compound P10, 2-[5-ethylsulfanyl-6-[3-methyl-4-oxo-5-(2,2,2-trifluoroethyl)-6-(trifluoromethyl)imidazo[4,5-c]pyridin-2-yl]-3-pyridyl]-2-methyl-propanenitrile] | ≥ 80 | ≥ 80 | ≥ 80 | ≥ 80 |  |  |  |  |  |  |  | 
CCS(=O)(=O)c1cc(C(C)(C)C#N)cnc1-c1nc2cc(C(F)(F)F)n(CC(F)(F)F)c(=O)c2n1C [Compound P11, 2-[5-ethylsulfonyl-6-[3-methyl-4-oxo-5-(2,2,2-trifluoroethyl)-6-(trifluoromethyl)imidazo[4,5-c]pyridin-2-yl]-3-pyridyl]-2-methyl-propanenitrile] | ≥ 80 | ≥ 80 | ≥ 80 | ≥ 80 |  | ≥ 80 |  |  |  |  |  | ≥ 80
CCSc1cc(C(C)(C)C#N)cnc1-c1nc2cc(C(F)(F)F)n(C3CC3)c(=O)c2n1C [Compound P18, 2-[6-[5-cyclopropyl-3-methyl-4-oxo-6-(trifluoromethyl)imidazo[4,5-c]pyridin-2-yl]-5-ethylsulfanyl-3-pyridyl]-2-methyl-propanenitrile] | ≥ 80 |  | ≥ 80 | ≥ 80 | ≥ 80 | ≥ 80 |  |  |  |  |  | 
CCS(=O)(=O)c1cc(C(C)(C)C#N)cnc1-c1cn2cnc(S(=O)(=O)C(F)F)cc2n1 [Compound P15, 2-[6-[7-(difluoromethylsulfonyl)imidazo[1,2-c]pyrimidin-2-yl]-5-ethylsulfonyl-3-pyridyl]-2-methyl-propanenitrile] |  |  | ≥ 80 | ≥ 80 |  |  |  |  |  |  | ≥ 80 | 
CCS(=O)(=O)c1cc(C(C)(C)C#N)ccc1-c1cn2ccc(C(F)(F)F)cc2n1 [Compound P19, 2-[3-ethylsulfonyl-4-[7-(trifluoromethyl)imidazo[1,2-a]pyridin-2-yl]phenyl]-2-methyl-propanenitrile] | ≥ 80 | ≥ 80 |  | ≥ 80 |  | ≥ 80 |  |  |  |  |  | 
CCS(=O)(=O)c1cc(C(C)(C)C#N)cnc1-c1cn2ccc(C(F)(F)F)cc2n1 [Compound P9, 2-[5-ethylsulfonyl-6-[7-(trifluoromethyl)imidazo[1,2-a]pyridin-2-yl]-3-pyridyl]-2-methyl-propanenitrile] | ≥ 80 |  | ≥ 80 | ≥ 80 | ≥ 80 | ≥ 80 |  |  |  |  |  | 
CCn1c(C(F)(F)F)cc2nc(-c3ccc(C(C)(C)C#N)cc3S(=O)(=O)CC)n(C)c2c1=O [Compound P13, 2-[4-[5-ethyl-3-methyl-4-oxo-6-(trifluoromethyl)imidazo[4,5-c]pyridin-2-yl]-3-ethylsulfonyl-phenyl]-2-methyl-propanenitrile] | ≥ 80 | ≥ 80 |  | ≥ 80 |  | ≥ 80 |  |  |  |  |  | 
CCS(=O)(=O)c1cc(C(C)(C)C#N)cnc1-c1cn2cnc([S+]([O-])C(F)F)cc2n1 (stereo not drawn) [Compound P16, 2-[6-[7-(difluoromethylsulfinyl)imidazo[1,2-c]pyrimidin-2-yl]-5-ethylsulfonyl-3-pyridyl]-2-methyl-propanenitrile] |  |  | ≥ 80 | ≥ 80 |  |  |  |  |  |  | ≥ 80 | 
CCS(=O)(=O)c1cc(C2(C#N)CC2)cnc1-c1cn2cnc(C(F)(F)F)cc2n1 [reference compound] |  |  |  |  |  |  | 0 | 0 |  | 0 |  | 
CCS(=O)(=O)c1cc(C(C)(C)C#N)cnc1-c1cn2ncc(C(F)(F)F)cc2n1 [Compound P8, 2-[5-ethylsulfonyl-6-[7-(trifluoromethyl)imidazo[1,2-b]pyridazin-2-yl]-3-pyridyl]-2-methyl-propanenitrile] | ≥ 80 | ≥ 80 | ≥ 80 | ≥ 80 |  | ≥ 80 |  |  | ≥ 80 |  | ≥ 80 | 
CCS(=O)(=O)c1cc(C(C)(C)C#N)cnc1-c1cn2ccc(SC(F)F)cc2n1 [Compound P5, 2-[6-[7-(difluoromethylsulfanyl)imidazo[1,2-a]pyridin-2-yl]-5-ethylsulfonyl-3-pyridyl]-2-methyl-propanenitrile] | ≥ 80 | ≥ 80 | ≥ 80 |  |  | ≥ 80 |  |  |  |  |  | 

— patent publication US11413291B2, “Pesticidally active heterocyclic derivatives with sulfur containing substituents” (SYNGENTA PARTICIPATIONS AG, priority 2017, dated 2022)
